Values quoted from earlier work in US10369266B2, “Multipart fluid system and a system for citrate anticoagulation in an extracorporeal blood circuit” (Gambro Lundia AB, priority 2013, dated 2019).

Test system: endothelial inflammation and dysfunction
Conditions: citrate 0.8 mM; hypoglycemic state; in vitro

O=C(O)CC(O)(CC(=O)O)C(=O)O [citrate]
effect on endothelial inflammation and dysfunction: reduces endothelial inflammation and dysfunction
